Results published in patent US9745305B2, “Modulators of methyl modifying enzymes, compositions and uses thereof” (Constellation Pharmaceuticals, Inc., priority 2013, dated 2017).

What was measured:
EZH2 = EZH2 (Homo sapiens, UniProt Q15910); assay: EZH2 Assay (3H SAM methyl transfer, rPRC2, FlashPlate); format: biochemical; settings: rPRC2, biotinylated oligonucleosomes, 0.2 μM 3H SAM, 2 nM EZH2
Experimental: (§1) EZH2 Assay: Assays were carried out by mixing rPRC2 together with biotinylated oligonucleosome substrates in the presence of the radio-labeled enzyme co-factor, S-adenosyl-L-methionine (^3H SAM) (Perkin Elmer) and monitoring the enzymatically mediated transfer of tritiated methyl groups from ^3H SAM to histone lysine residues. The amount of resulting tritiated methyl histone product was measured by first capturing the biotinylated oligonucleosomes in streptavidin (SAV) coated FlashPlates (Perkin Elmer), followed by a wash step to remove unreacted ^3H SAM, and then counting on a TopCount NXT 384 well plate scintillation counter (Perkin Elmer). The final assay conditions for EZH2 were as follows: 50 mM Tris Buffer pH 8.5, 1 mM DTT, 69 μM Brij-35 detergent, 5.0 mM MgCl2, 0.1 mg/mL BSA, 0.2 μM ^3H SAM, 0.2 μM biotinylated oligonucleosomes, 3.6 μM H3K27me3 peptide and 2 nM EZH2.
(§2) Compound IC50 measurements were obtained as follows: Compounds were first dissolved in 100% DMSO as 10 mM stock solutions. Ten point dose response curves were generated by dispensing varying amounts of the 10 mM compound solution in 10 wells of the 384 well plate (Echo; Labcyte), pure DMSO was then used to backfill the wells to insure all wells have the same amount of DMSO. A 12.5 μL volume of the HMT enzyme, H3K27me3 peptide and oligonucleosome substrate in assay buffer was added to each well of the assay plate using a Multidrop Combi (ThermoFisher). Compounds were pre-incubated with the enzyme for 20 min, followed by initiation of the methyltransferase reaction by addition of 12.5 μL of ^3H SAM in assay buffer (final volume=25 μL). The final concentrations of compounds ranged from a top default concentration of 80 μM down to 0.16 μM in ten 2-fold dilution steps. Reactions were carried out for 60 minutes and quenched with 20 μL per well of 1.96 mM SAH, 50 mM Tris pH 8.5, 200 mM EDTA. Stopped reactions were transferred to SAV coated Flashplates (Perkin Elmer), incubated for 120 min, washed with a plate washer, and then read on the TopCount NXT (1.0 min/well) to measure the amount of methyl histone product formed during the reaction. The amount of methyl histone product was compared with the amount of product formed in the 0% and 100% inhibition control wells allowing the calculation of % Inhibition in the presence of the individual compounds at various concentrations. IC50's were computed using a 4 parameter fit non-linear curve fitting software package (XLFIT, part of the database package, ActivityBase (IDBS)) where the four parameters were IC50, Hill slope, pre-transitional baseline (0% INH), and post-transitional baseline (100% INH); with the latter two parameters being fixed to zero and 100%, respectively, by default.

[1] = system: H3K27me3 mark in Hela cells expressing wild type EZH2; assay: H3K27me3 Alpha Hela Assay (AlphaLISA); format: cell-based; settings: Homo sapiens, 72 hrs, read-out: H3K27me3_Alpha_HeLa (EC50)
Experimental: H3K27me3 Alpha Hela Assay (AlphaLISA). Ten different doses of each test compound (in a series of 3-fold dilutions) were plated in duplicate 384-well tissue culture treated plates (Catalog #781080; Greiner Bio One; Monroe, N.C.). Hela cells grown in culture were trypsinized and counted using a Countess® cell counter (Catalog # C10281; Life Technologies, Grand Island, N.Y.). Cell were diluted to 67,000 cells per mL in 10% DMEM (Catalog #10569-010 Life Technologies, Grand Island, N.Y.) and 15 μL (1,000 cells) were plated into each well using the Biotek MicroFlo™ Select Dispenser (BioTek Instruments, Inc. Vermont, USA),) of the 384-well plate. Plates were incubated at 37° C./5% CO2 for 72 hrs. One of the duplicate plates was processed for HeLa assay and the other for viability.
To the plate processed for AlphaLISA was added 5 μL per well Cell-Histone Lysis buffer (1×) (Catalog # AL009F1 Perkin Elmer; Waltham, Mass.) and the plate was incubated at RT for 30 minutes on a plate shaker with low speed (Model#4625-Q Thermo Scientific; Waltham, Mass.). Then, 10 μL per well Histone Extraction buffer (catalog # AL009F2; Perkin Elmer; Waltham, Mass.) was added and the plate further incubated at RT for 20 min on plate shaker with low speed. To each well was then added 10 μL per well of a 5× mix of anti-K27me3 acceptor beads plus Biotinylated anti-Histone H3 (C-ter) Antibody (diluted to 3 nM final) (Catalog #AL118 Perkin Elmer; Waltham, Mass.). Dilution of the acceptor beads and then anti-Histone H3 was with 1× Histone Detection buffer (Catalog # AL009F3 Perkin Elmer; Waltham, Mass.) which was produced diluted from the 10× stock provided. The plate was sealed with an aluminum plate sealer and incubated at 23° C. for 60 min. We then added 10 μL 5× solution of Streptavidin Donor beads (Catalog #6760002 Perkin Elmer; Waltham, Mass.) (20 μg/mL final in 1× Histone Detection Buffer), sealed the plate with Aluminum plate sealer and incubated at 23° C. for 30 min. The plates were then read using an EnVision-Alpha Reader (model #2104 Perkin Elmer; Waltham, Mass.).
Data from both assays was analyzed using Assay Assistant (Constellation Pharmaceuticals In-house product) and Activity Base (IDBS Ltd, Surrey, UK) template. Data files were imported to Assay Assistant and assay conditions were specified. A unique Analysis ID was created and the data files exported to Activity Base. An analysis template was created on Activity Base to measure dose-dependent inhibition of H3K27me3 mark and cell viability respectively. Readout of DMSO wells were used to normalize the data. Resulting curves were fitted using Activity base software Model 205 (IDBS Ltd, Surrey, UK). The data was checked for quality, validated and integrated in excel format using SARview (IDBS Ltd, Surrey, UK).

Y641N EZH2 = Y641N EZH2 (Homo sapiens, UniProt Q15910, Y641N); assay: Assay for Y641N EZH2 (as the EZH2 assay, H3K27Me2 oligonucleosomes as substrate); format: biochemical; settings: Y641N EZH2 mutant, reconstituted H3K27Me2 oligonucleosomes as substrate
Experimental: as §1, §2
Assay for Y641N EZH2 was performed as above using reconstituted H3K27Me2 oligonucleosomes as substrate.

Sequence of Y641N EZH2 (Q15910 whole entry Y641N): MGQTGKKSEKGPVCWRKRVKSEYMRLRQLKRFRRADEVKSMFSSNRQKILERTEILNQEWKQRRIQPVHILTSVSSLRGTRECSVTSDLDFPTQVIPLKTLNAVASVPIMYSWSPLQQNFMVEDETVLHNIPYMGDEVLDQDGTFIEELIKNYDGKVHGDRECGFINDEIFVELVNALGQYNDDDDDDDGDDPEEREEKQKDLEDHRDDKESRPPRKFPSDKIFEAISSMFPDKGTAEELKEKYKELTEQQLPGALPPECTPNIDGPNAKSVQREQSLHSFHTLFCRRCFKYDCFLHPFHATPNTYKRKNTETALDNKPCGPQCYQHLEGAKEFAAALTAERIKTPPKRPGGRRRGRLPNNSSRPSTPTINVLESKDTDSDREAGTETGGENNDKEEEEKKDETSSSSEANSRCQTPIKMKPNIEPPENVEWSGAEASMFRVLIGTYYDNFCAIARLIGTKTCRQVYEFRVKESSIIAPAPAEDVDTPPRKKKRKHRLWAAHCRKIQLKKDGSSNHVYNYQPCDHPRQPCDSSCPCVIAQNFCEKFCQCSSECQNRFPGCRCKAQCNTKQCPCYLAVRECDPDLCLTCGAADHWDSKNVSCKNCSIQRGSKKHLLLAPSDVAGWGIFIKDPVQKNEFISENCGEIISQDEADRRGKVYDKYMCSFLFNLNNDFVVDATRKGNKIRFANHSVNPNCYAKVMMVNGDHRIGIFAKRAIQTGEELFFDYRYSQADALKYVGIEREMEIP
Sequence of Y641N EZH2 (O75530 whole entry partner): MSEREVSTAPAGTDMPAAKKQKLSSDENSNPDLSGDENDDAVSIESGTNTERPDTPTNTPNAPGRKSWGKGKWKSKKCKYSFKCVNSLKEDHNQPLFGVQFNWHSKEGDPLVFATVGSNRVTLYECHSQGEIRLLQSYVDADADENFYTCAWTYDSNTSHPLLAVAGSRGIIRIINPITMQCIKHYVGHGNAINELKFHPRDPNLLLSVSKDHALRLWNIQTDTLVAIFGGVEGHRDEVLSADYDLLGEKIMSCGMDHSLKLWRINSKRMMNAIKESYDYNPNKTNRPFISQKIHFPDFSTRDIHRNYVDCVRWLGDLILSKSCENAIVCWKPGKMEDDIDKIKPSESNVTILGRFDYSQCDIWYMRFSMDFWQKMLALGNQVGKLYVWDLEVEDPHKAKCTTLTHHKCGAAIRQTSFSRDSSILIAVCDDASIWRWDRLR
Sequence of Y641N EZH2 (Q15022 whole entry partner): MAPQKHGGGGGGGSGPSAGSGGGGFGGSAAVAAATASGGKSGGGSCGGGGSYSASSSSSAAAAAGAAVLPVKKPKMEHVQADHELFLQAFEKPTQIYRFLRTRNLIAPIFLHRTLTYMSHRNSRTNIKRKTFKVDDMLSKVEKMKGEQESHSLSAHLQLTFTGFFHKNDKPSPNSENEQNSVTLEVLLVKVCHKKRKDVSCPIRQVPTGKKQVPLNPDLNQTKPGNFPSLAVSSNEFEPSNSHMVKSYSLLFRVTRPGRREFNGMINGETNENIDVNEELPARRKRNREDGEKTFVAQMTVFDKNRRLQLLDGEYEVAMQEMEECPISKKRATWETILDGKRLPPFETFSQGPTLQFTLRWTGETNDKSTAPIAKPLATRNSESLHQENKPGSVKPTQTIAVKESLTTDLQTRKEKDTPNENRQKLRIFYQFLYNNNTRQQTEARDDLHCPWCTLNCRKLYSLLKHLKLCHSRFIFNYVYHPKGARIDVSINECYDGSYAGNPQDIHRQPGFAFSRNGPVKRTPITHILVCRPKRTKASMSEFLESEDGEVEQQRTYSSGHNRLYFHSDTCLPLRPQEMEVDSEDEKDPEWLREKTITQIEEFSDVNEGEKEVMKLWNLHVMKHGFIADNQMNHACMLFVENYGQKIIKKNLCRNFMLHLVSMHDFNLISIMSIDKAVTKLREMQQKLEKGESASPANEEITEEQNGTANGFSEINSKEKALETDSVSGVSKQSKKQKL
Sequence of EZH2 (Q15910 whole entry): as the sequence (Q15910 whole entry Y641N) above, with N641Y counted along it
Sequence of EZH2 (O75530 whole entry partner): as the sequence (O75530 whole entry partner) above
Sequence of EZH2 (Q15022 whole entry partner): as the sequence (Q15022 whole entry partner) above

SMILES | IC50 (EZH2) [nM] | EC50 [1] [nM] | IC50 (Y641N EZH2) [nM]
Cc1ccc2c(C(=O)NCc3c(C)cc(C)[nH]c3=O)c(C)c(C(C)C3CCN(CC(C)(C)O)CC3)n2n1 (stereo not shown) [Compound 129, N-((4,6-dimethyl-2-oxo-1,2-dihydropyridin-3-yl)methyl)-7-(1-(1-(2-hydroxy-2-methylpropyl)piperidin-4-yl)ethyl)-2,6-dimethylpyrrolo[1,2-b]pyridazine-5-carboxamide] | < 100 | 400 to 2000 | 
COc1cc(C)[nH]c(=O)c1CNC(=O)c1c(C)c(C(C)N(C)C)n2ncccc12 (stereo not shown) [Compound 130, 7-(1-(dimethylamino)ethyl)-N-((4-methoxy-6-methyl-2-oxo-1,2-dihydropyridin-3-yl)methyl)-6-methylpyrrolo[1,2-b]pyridazine-5-carboxamide] | < 100 | 2000 to 10000 | 
COc1cc(C)[nH]c(=O)c1CNC(=O)c1c(Cl)c(C(C)C2CCOCC2)n2ncccc12 (stereo not shown) [Compound 132, 6-chloro-N-((4-methoxy-6-methyl-2-oxo-1,2-dihydropyridin-3-yl)methyl)-7-(1-(tetrahydro-2H-pyran-4-yl)ethyl)pyrrolo[1,2-b]pyridazine-5-carboxamide] | < 100 | < 400 | 
COc1cc(C)[nH]c(=O)c1CNC(=O)c1c(C)c(C(C)C2CCN(CC(F)(F)F)CC2)n2ncccc12 (stereo not shown) [Compound 133, N-((4-methoxy-6-methyl-2-oxo-1,2-dihydropyridin-3-yl)methyl)-6-methyl-7-(1-(1-(2,2,2-trifluoroethyl)piperidin-4-yl)ethyl)pyrrolo[1,2-b]pyridazine-5-carboxamide] | < 100 | < 400 | < 100
COc1cc(C)[nH]c(=O)c1CNC(=O)c1c(C)c(C(C)C2CCN(CCC(F)(F)F)CC2)n2ncccc12 (stereo not shown) [Compound 134, N-((4-methoxy-6-methyl-2-oxo-1,2-dihydropyridin-3-yl)methyl)-6-methyl-7-(1-(1-(3,3,3-trifluoropropyl)piperidin-4-yl)ethyl)pyrrolo[1,2-b]pyridazine-5-carboxamide] | < 100 | 400 to 2000 | 
COc1cc(C)[nH]c(=O)c1CNC(=O)c1c(C)c(C(C)C2CCN(C(=O)C(C)(F)F)CC2)n2ncccc12 (stereo not shown) [Compound 135, 7-(1-(1-(2,2-difluoropropanoyl)piperidin-4-yl)ethyl)-N-((4-methoxy-6-methyl-2-oxo-1,2-dihydropyridin-3-yl)methyl)-6-methylpyrrolo[1,2-b]pyridazine-5-carboxamide] | < 100 | < 400 | 1000 to 10000
COc1cc(C)[nH]c(=O)c1CNC(=O)c1c(C)c(C(C)C2CCN(C(=O)C(C)(C)F)CC2)n2ncccc12 (stereo not shown) [Compound 136, 7-(1-(1-(2-fluoro-2-methylpropanoyl)piperidin-4-yl)ethyl)-N-((4-methoxy-6-methyl-2-oxo-1,2-dihydropyridin-3-yl)methyl)-6-methylpyrrolo[1,2-b]pyridazine-5-carboxamide] | < 100 | < 400 | 
COc1cc(C)[nH]c(=O)c1CNC(=O)c1c(C)c(C(C)C2CCN(C(=O)CC(F)(F)F)CC2)n2ncccc12 (stereo not shown) [Compound 137, N-((4-methoxy-6-methyl-2-oxo-1,2-dihydropyridin-3-yl)methyl)-6-methyl-7-(1-(1-(3,3,3-trifluoropropanoyl)piperidin-4-yl)ethyl)pyrrolo[1,2-b]pyridazine-5-carboxamide] | < 100 | < 400 | 
COc1cc(C)[nH]c(=O)c1CNC(=O)c1c(C)c(C(C)C2CCN(C(=O)C(F)F)CC2)n2ncccc12 (stereo not shown) [Compound 138, 7-(1-(1-(2,2-difluoroacetyl)piperidin-4-yl)ethyl)-N-((4-methoxy-6-methyl-2-oxo-1,2-dihydropyridin-3-yl)methyl)-6-methylpyrrolo[1,2-b]pyridazine-5-carboxamide] | < 100 | < 400 | 1000 to 10000
COc1cc(C)[nH]c(=O)c1CNC(=O)c1c(C)c(C(C)C2CCN(C(=O)C(F)(F)F)CC2)n2ncccc12 (stereo not shown) [Compound 139, N-((4-methoxy-6-methyl-2-oxo-1,2-dihydropyridin-3-yl)methyl)-6-methyl-7-(1-(1-(2,2,2-trifluoroacetyl)piperidin-4-yl)ethyl)pyrrolo[1,2-b]pyridazine-5-carboxamide] | < 100 | < 400 | < 100
COc1cc(C)[nH]c(=O)c1CNC(=O)c1c(C)c(C(C)C2CCN(CC(C)(F)F)CC2)n2ccncc12 (stereo not shown) [Compound 140, 6-(1-(1-(2,2-difluoropropyl)piperidin-4-yl)ethyl)-N-((4-methoxy-6-methyl-2-oxo-1,2-dihydropyridin-3-yl)methyl)-7-methylpyrrolo[1,2-a]pyrazine-8-carboxamide] | < 100 | < 400 | 1000 to 10000
COc1cc(C)[nH]c(=O)c1CNC(=O)c1c(Cl)c(C(C)C2CCN(CC(C)(C)O)CC2)n2ncccc12 (stereo not shown) [Compound 142, 6-chloro-7-(1-(1-(2-hydroxy-2-methylpropyl)piperidin-4-yl)ethyl)-N-((4-methoxy-6-methyl-2-oxo-1,2-dihydropyridin-3-yl)methyl)pyrrolo[1,2-b]pyridazine-5-carboxamide] | < 100 | < 400 | < 100
COc1cc(C)[nH]c(=O)c1CNC(=O)c1c(C)c(C(C)C2CCN(CC(C)(F)F)CC2)n2ncccc12 (stereo not shown) [Compound 143, 7-(1-(1-(2,2-difluoropropyl)piperidin-4-yl)ethyl)-N-((4-methoxy-6-methyl-2-oxo-1,2-dihydropyridin-3-yl)methyl)-6-methylpyrrolo[1,2-b]pyridazine-5-carboxamide] | < 100 | < 400 | 
COc1cc(C)[nH]c(=O)c1CNC(=O)c1c(C)c(C(C)C2CCN(CC(F)F)CC2)n2ncccc12 (stereo not shown) [Compound 145, 7-(1-(1-(2,2-difluoroethyl)piperidin-4-yl)ethyl)-N-((4-methoxy-6-methyl-2-oxo-1,2-dihydropyridin-3-yl)methyl)-6-methylpyrrolo[1,2-b]pyridazine-5-carboxamide] | < 100 | < 400 | 
